This note sets out measurements from PubChem BioAssay AID1259411 (Chemical Carcinogenesis Research Information System (CCRIS), 2018).

In this series the test system is rodent carcinogenicity bioassays, tumor incidence. In words: CCRIS carcinogenicity studies. As to conditions: Dose: 0, Dose: 0. The gist of the method:
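NCI-built, expert-reviewed records of carcinogenicity and related test outcomes (mutagenicity, tumor promotion/inhibition) compiled from published and report sources, historical span 1985-2011, not updated.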

Each structure is given as a SMILES string. The source made the active and inactive calls. The rule behind the calls is not given here.

As for `O=S(=O)(O)c1cc(S(=O)(=O)O)c2c(N=Nc3ccccc3)c(O)ccc2c1`, the carcinogen call (Species: MOUSE, Strain/Sex: B6C3F1/FEMALE, Route: ORAL, 3000, 6000 PPM IN DIET FOR 103 WK (STUDY DURATION: 104 WK), 3000, 6000 PPM IN DIET FOR 103 WK (STUDY DURATION: 104 WK)) is “inactive; negative”; the carcinogen call (Species: MOUSE, Strain/Sex: B6C3F1/MALE, Route: ORAL, 3000, 6000 PPM IN DIET FOR 103 WK (STUDY DURATION: 104 WK), 3000, 6000 PPM IN DIET FOR 103 WK (STUDY DURATION: 104 WK)) was “inactive; negative”; the carcinogen call (Species: RAT, Strain/Sex: F344/FEMALE, Route: ORAL, 1000, 3000 PPM IN DIET FOR 103 WK (STUDY DURATION: 104 WK), 1000, 3000 PPM IN DIET FOR 103 WK (STUDY DURATION: 104 WK)) is “inactive; negative”; the carcinogen call (Species: RAT, Strain/Sex: F344/MALE, Route: ORAL, 1000, 3000 PPM IN DIET FOR 103 WK (STUDY DURATION: 104 WK), 1000, 3000 PPM IN DIET FOR 103 WK (STUDY DURATION: 104 WK)) is “inactive; negative”.

On to `O=C1CN(/N=C/c2ccc([N+](=O)[O-])o2)C(=O)N1`, for which the carcinogen call by setting is: (Species: MOUSE, Strain/Sex: B6C3F1/FEMALE, Route: ORAL, 1300, 2500 PPM IN FEED FOR 103 WK (STUDY DURATION: 105 WK), 1300, 2500 PPM IN FEED FOR 103 WK (STUDY DURATION: 105 WK), Tumor Site: Type of Lesion: OVARY: TUBULAR ADENOMA, MIXED TUMOR (BENIGN)) “active; positive”; (Species: MOUSE, Strain/Sex: B6C3F1/MALE, Route: ORAL, 1300, 2500 PPM IN FEED FOR 103 WK (STUDY DURATION: 105 WK), 1300, 2500 PPM IN FEED FOR 103 WK (STUDY DURATION: 105 WK)) “inactive; negative”; (Species: MOUSE, Strain/Sex: BDF1/FEMALE, Route: ORAL, 0.075, 0.3% IN DIET BEGINNING AT 9 WK OF AGE AND CONTINUING FOR DURATION OF STUDY (STUDY DURATION: 24 MO), 0.075, 0.3% IN DIET BEGINNING AT 9 WK OF AGE AND CONTINUING FOR DURATION OF STUDY (STUDY DURATION: 24 MO)) “inactive; negative”; (Species: MOUSE, Strain/Sex: BDF1/MALE, Route: ORAL, 0.075, 0.3% IN DIET BEGINNING AT 9 WK OF AGE AND CONTINUING FOR DURATION OF STUDY (STUDY DURATION: 24 MO), 0.075, 0.3% IN DIET BEGINNING AT 9 WK OF AGE AND CONTINUING FOR DURATION OF STUDY (STUDY DURATION: 24 MO)) “inactive; negative”; (Species: MOUSE, Strain/Sex: ICR/MALE, FEMALE, Route: TRANSPLACENTAL, 75 UG/G ADMINISTERED SUBCUTANEOUSLY TO MOTHERS ON DAYS 13, 15 AND 17 OF GESTATION (STUDY DURATION: 33 WK), Tumor Site: Type of Lesion: LUNG: PAPILLARY ADENOMA) “active; positive”; (Species: MOUSE, Strain/Sex: SWISS/FEMALE, Route: ORAL, 0.03% IN DIET FOR 441 D, THEN 0.04% IN DIET FOR DURATION OF STUDY (TOTAL AVERAGE DOSE: 58.76 MG/KG) (STUDY DURATION:, 0.03% IN DIET FOR 441 D, THEN 0.04% IN DIET FOR DURATION OF STUDY (TOTAL AVERAGE DOSE: 58.76 MG/KG) (STUDY DURATION:) “inactive; negative”. Also, the carcinogen call by setting is: (Species: MOUSE, Strain/Sex: SWISS/FEMALE, Route: ORAL, 0.06% IN DIET FOR 441 D, THEN 0.075% IN DIET FOR DURATION OF STUDY (TOTAL AVERAGE DOSE: 115.59 MG/KG) (STUDY DURATION, 0.06% IN DIET FOR 441 D, THEN 0.075% IN DIET FOR DURATION OF STUDY (TOTAL AVERAGE DOSE: 115.59 MG/KG) (STUDY DURATION) “inactive; negative”; (Species: MOUSE, Strain/Sex: SWISS/FEMALE, Route: ORAL, 0.13% IN DIET FOR 441 D, THEN 0.155% IN DIET FOR DURATION OF STUDY (TOTAL AVERAGE DOSE: 224.07 MG/KG) (STUDY DURATION, 0.13% IN DIET FOR 441 D, THEN 0.155% IN DIET FOR DURATION OF STUDY (TOTAL AVERAGE DOSE: 224.07 MG/KG) (STUDY DURATION) “inactive; negative”; (Species: MOUSE, Strain/Sex: SWISS/MALE, Route: ORAL, 0.03% IN DIET FOR 441 D, THEN 0.04% IN DIET FOR DURATION OF STUDY (TOTAL AVERAGE DOSE: 43.63 MG/KG) (STUDY DURATION:, 0.03% IN DIET FOR 441 D, THEN 0.04% IN DIET FOR DURATION OF STUDY (TOTAL AVERAGE DOSE: 43.63 MG/KG) (STUDY DURATION:) “inactive; negative”; (Species: MOUSE, Strain/Sex: SWISS/MALE, Route: ORAL, 0.06% IN DIET FOR 441 D, THEN 0.075% IN DIET FOR DURATION OF STUDY (TOTAL AVERAGE DOSE: 83.59 MG/KG) (STUDY DURATION:, 0.06% IN DIET FOR 441 D, THEN 0.075% IN DIET FOR DURATION OF STUDY (TOTAL AVERAGE DOSE: 83.59 MG/KG) (STUDY DURATION:) “inactive; negative”; (Species: MOUSE, Strain/Sex: SWISS/MALE, Route: ORAL, 0.13% IN DIET FOR 441 D, THEN 0.155% IN DIET FOR DURATION OF STUDY (TOTAL AVERAGE DOSE: 181.14 MG/KG) (STUDY DURATION, 0.13% IN DIET FOR 441 D, THEN 0.155% IN DIET FOR DURATION OF STUDY (TOTAL AVERAGE DOSE: 181.14 MG/KG) (STUDY DURATION, Tumor Site: Type of Lesion: HEMATOPOIETIC SYSTEM: MALIGNANT LYMPHOMA) “active; positive”; (Species: RAT, Strain/Sex: F344/FEMALE, Route: ORAL, 600, 1300 PPM IN FEED FOR 103 WK (STUDY DURATION: 105 WK), 600, 1300 PPM IN FEED FOR 103 WK (STUDY DURATION: 105 WK)) “inactive; negative”. Moreover, the carcinogen call runs as follows: (Species: RAT, Strain/Sex: F344/MALE, Route: ORAL, 0.187% IN DIET FOR 104 WK (STUDY DURATION: 104 WK)) “inactive; negative”; (Species: RAT, Strain/Sex: F344/MALE, Route: ORAL, 1300, 2500 PPM IN FEED FOR 103 WK (STUDY DURATION: 105 WK), 1300, 2500 PPM IN FEED FOR 103 WK (STUDY DURATION: 105 WK), Tumor Site: Type of Lesion: KIDNEY: TUBULAR ADENOMA OR CARCINOMA, SUBCUTANEOUS TISSUE: FIBROMA, FIBROMA OR FIBROSARCOMA) “active; positive”; (Species: RAT, Strain/Sex: SPRAGUE-DAWLEY/FEMALE, Route: ORAL, 0.188% IN DIET FOR 2 YR (STUDY DURATION: 2 YR), Tumor Site: Type of Lesion: MAMMARY GLAND: FIBROADENOMA) “active; positive”; (Species: RAT, Strain/Sex: STRAIN-CD/FEMALE, Route: ORAL, 12, 24, 48 MG/KG BW IN DIET FOR 24 MO (STUDY DURATION: 24 MO), 12, 24, 48 MG/KG BW IN DIET FOR 24 MO (STUDY DURATION: 24 MO)) “inactive; negative”; (Species: RAT, Strain/Sex: STRAIN-CD/MALE, Route: ORAL, 12, 24, 48 MG/KG BW IN DIET FOR 24 MO (STUDY DURATION: 24 MO), 12, 24, 48 MG/KG BW IN DIET FOR 24 MO (STUDY DURATION: 24 MO)) “inactive; negative”.

With `CCCC(=O)CN(C)N=O`, the carcinogen call is “active; positive” (Species: RAT, Strain/Sex: WISTAR/MALE, FEMALE, Route: SUBCUTANEOUS, 75 MG/KG 1/WK FOR 6 WK TO ADULT ANIMALS (STUDY DURATION: LIFETIME), Tumor Site: Type of Lesion: ESOPHAGUS: PAPILLOMA, NASAL CAVITY: PAPILLOMA, SQUAMOUS CARCINOMA OR ADENOMA, SOFT TISSUE (INJECTION SITE): SARCOMA, THY, Tumor Site: Type of Lesion: ESOPHAGUS: PAPILLOMA, NASAL CAVITY: PAPILLOMA, SQUAMOUS CARCINOMA OR ADENOMA, SOFT TISSUE (INJECTION SITE): SARCOMA, THY) and “active; positive” (Species: RAT, Strain/Sex: WISTAR/MALE,FEMALE, Route: INTRAPERITONEAL, 75 MG/KG 1/WK FOR 6 WK BEGINNING AT 52-61 DAYS OF AGE (STUDY DURATION: >35 WK), Tumor Site: Type of Lesion: ESOPHAGUS: PAPILLOMA, NASAL CAVITY: TUMOR, INJECTION SITE: SARCOMA, Tumor Site: Type of Lesion: ESOPHAGUS: PAPILLOMA, NASAL CAVITY: TUMOR, INJECTION SITE: SARCOMA).
